Earlier results on one substance are cited in patent US12263217B2, “Nucleic acid stabilizing solution for vaccines, therapy, diagnostics, storage, and transport” (Daykin Molecular Systems, LLC, priority 2020, dated 2025).

As for tris(hydroxymethyl)aminomethane, under “in vivo”, the doses well tolerated is 3.6 grams/50 kg body weight. Also, the doses clinically used (parenteral) is “up to 500 mg/kg weight”.
